Assay results reported in patent US20100137313A1 (ASTRAZENECA AB, priority 2008, published 2010).

Biological target: S. pneumoniae Topoisomerase IV ATPase (ParE) (Streptococcus pneumoniae serotype 4, UniProt Q59961)
Assay: S. pneumoniae Topoisomerase IV ATPase inhibition
Type: biochemical
Conditions: values marked * are an average of two or more data points, read-out: % Inh (13 μM) of S. pneumoniae Topoisomerase IV ATPase
Procedure, shortened: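 S. pneumoniae ParE (1.25 nM) ATPase with 160 μM ATP and 5 μg/ml sheared DNA in pH 8.0 Tris, Mg2+, DTT, Brij-35; phosphate detected by malachite green/molybdate at 650 nm. Normalised to 2% DMSO (0%) and 20 μM EDTA (100%); IC50 from 10 concentrations.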

S. pneumoniae Topoisomerase IV ATPase (ParE), sequence (Q59961 whole entry): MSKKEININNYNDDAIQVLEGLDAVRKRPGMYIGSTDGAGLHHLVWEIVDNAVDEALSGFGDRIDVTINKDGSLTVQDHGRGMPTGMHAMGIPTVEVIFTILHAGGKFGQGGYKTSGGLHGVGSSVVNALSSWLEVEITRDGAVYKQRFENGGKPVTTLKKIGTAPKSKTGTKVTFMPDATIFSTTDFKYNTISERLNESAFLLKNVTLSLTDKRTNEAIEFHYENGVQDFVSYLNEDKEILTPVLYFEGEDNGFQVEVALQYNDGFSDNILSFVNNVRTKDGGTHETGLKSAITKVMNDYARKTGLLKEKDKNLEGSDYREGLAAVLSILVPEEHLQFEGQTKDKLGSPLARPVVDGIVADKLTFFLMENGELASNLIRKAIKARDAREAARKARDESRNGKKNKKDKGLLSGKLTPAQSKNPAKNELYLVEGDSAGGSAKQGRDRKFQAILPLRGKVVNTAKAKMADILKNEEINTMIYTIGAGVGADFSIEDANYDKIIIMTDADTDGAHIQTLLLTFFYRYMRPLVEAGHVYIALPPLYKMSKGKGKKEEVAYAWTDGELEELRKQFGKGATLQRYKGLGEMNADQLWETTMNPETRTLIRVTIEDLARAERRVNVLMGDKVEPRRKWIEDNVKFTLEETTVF

Row | SMILES | inhibition at 13 µM
1 | COc1cc(Nc2ncc(-c3cnc(SC)c(C(=O)NS(C)(=O)=O)c3)c(-n3nc(C(F)(F)F)cc3C)n2)cc(OC)c1 [Example 855, 5-{2-[(3,5-dimethoxyphenyl)amino]-4-[5-methyl-3-(trifluoromethyl)-1H-pyrazol-1-yl]pyrimidin-5-yl}-2-(methylsulfanyl)-N-(methylsulfonyl)pyridine-3-carboxamide] | 94%
2 | CCNC(=O)c1ccc(-c2cnc(Nc3ccc(F)c(Cl)c3)nc2NCCCN(C)C)s1 [Example 367, 5-(2-(3-chloro-4-fluorophenylamino)-4-(3-(dimethylamino)propylamino)pyrimidin-5-yl)-N-ethylthiophene-2-carboxamide] | 104%
3 | COc1cc(Nc2ncc(-c3cccc(/C=C/C(=O)O)c3)c(N3CCOCC3)n2)cc(OC)c1 [Example 351, (E)-3-(3-(2-(3,5-dimethoxyphenylamino)-4-morpholinopyrimidin-5-yl)phenyl) acrylic acid] | 82.8%
4 | COCCCNc1nc(Nc2ccc(F)c(Cl)c2)ncc1-c1nc(C)c(C(=O)O)s1 [Example 509, 2-{2-[(3-chloro-4-fluorophenyl)amino]-4-[(3-methoxypropyl)amino]pyrimidin-5-yl}-4-methyl-1,3-thiazole-5-carboxylic acid] | 100%
5 | COc1cc(Nc2ncc(-c3cnc(SC)c(C(=O)O)c3)c(-n3ccc(C(F)(F)F)n3)n2)cc(OC)c1 [Example 851, 5-{2-[(3,5-dimethoxyphenyl)amino]-4-[3-(trifluoromethyl)-1H-pyrazol-1-yl]pyrimidin-5-yl}-2-(methylsulfanyl)pyridine-3-carboxylic acid] | 98%
6 | CN(C)CCCNc1nc(Nc2ccc(F)c(Cl)c2)ncc1-c1ccc(C(=O)O)cc1 [Example 216, 4-(2-[(3-chloro-4-fluorophenyl)amino]-4-{[3-(dimethylamino)propyl]amino}pyrimidin-5-yl)benzoic acid] | 96.3%
7 | CONC(=O)c1cccc(-c2cnc(Nc3ccc(F)c(Cl)c3)nc2NCCCN(C)C)c1 [Example 360, 3-(2-(3-chloro-4-fluorophenylamino)-4-(3-(dimethylamino)propylamino)pyrimidin-5-yl)-N-methoxybenzamide] | 112%
8 | COc1cc(Nc2ncc(-c3cccc(/C=C/C(=O)O)c3)c(NCCc3ccncc3)n2)cc(C(F)(F)F)c1 [Example 355, (E)-3-(3-(2-(3-methoxy-5-(trifluoromethyl)phenylamino)-4-(2-(pyridin-4-yl)ethylamino)pyrimidin-5-yl)phenyl) acrylic acid] | 86.6%
9 | Cc1cc(C(F)(F)F)nn1-c1nc(Nc2ccc(F)c(Cl)c2)ncc1-c1cncnc1 [Example 70, N-(3-chloro-4-fluorophenyl)-4-[5-methyl-3-(trifluoromethyl)-1H-pyrazol-1-yl]-5,5′-bipyrimidin-2-amine] | 86.6%
10 | COCCNc1nc(Nc2ccc(F)c(Cl)c2)ncc1-c1cncc(C(=O)O)c1 [Example 234, 5-[2-[(3-chloro-4-fluorophenyl)amino]-4-(2-methoxyethylamino)-pyrimidin-5-yl]pyridine-3-carboxylic acid] | 73.2%
11 | CCOC(=O)/C=C/c1cccc(-c2cnc(Nc3ccc(F)c(Cl)c3)nc2N2CC(C)OC(C)C2)c1 (stereo not shown) [Example 163, (E)-ethyl 3-(3-(2-(3-chloro-4-fluorophenylamino)-4-(2,6-dimethylmorpholino)pyrimidin-5-yl)phenyl)acrylate] | 55%
12 | COc1cccc(Nc2ncc(-c3cccc(/C=C/C(=O)O)c3)c(N3CCOCC3)n2)c1 [Example 451] | 70%
13 | CCOC(=O)c1cncc(-c2cnc(Nc3ccc(F)c(Cl)c3)nc2NCCc2ccncc2)c1 [Example 103, 5-[2-(3-Chloro-4-fluoro-phenylamino)-4-(2-pyridin-4-yl-ethylamino)-pyrimidin-5-yl]-nicotinic acid ethyl ester] | 79.5%
